According to patent US20050043341A1, “3-'Hydroxy-(-4-trifluoromethylphenyl)-methyl-7-spirocyclobutyl-5,6,7 8-tetrahydroquinolin-5-ol derivatives and the use of the same as cholesterol ester transfer protein (cetp) inhibitors” (priority 2001, published 2005):
Read-outs that look alike come from different tables or passages of the source.

Key:
[1] = target: T1, CETP activity in the serum (Homo sapiens, UniProt P11597); experiment: Ex vivo activities on transgenic hCETP mice (serum CETP activity after oral administration); details: mouse, cholesteryl ester transport in serum
T1 construct: determination of its basal CETP activity in the serum; from tissue; host or cells: serum of transgenic hCETP mice
T1 sequence (P11597 18-493): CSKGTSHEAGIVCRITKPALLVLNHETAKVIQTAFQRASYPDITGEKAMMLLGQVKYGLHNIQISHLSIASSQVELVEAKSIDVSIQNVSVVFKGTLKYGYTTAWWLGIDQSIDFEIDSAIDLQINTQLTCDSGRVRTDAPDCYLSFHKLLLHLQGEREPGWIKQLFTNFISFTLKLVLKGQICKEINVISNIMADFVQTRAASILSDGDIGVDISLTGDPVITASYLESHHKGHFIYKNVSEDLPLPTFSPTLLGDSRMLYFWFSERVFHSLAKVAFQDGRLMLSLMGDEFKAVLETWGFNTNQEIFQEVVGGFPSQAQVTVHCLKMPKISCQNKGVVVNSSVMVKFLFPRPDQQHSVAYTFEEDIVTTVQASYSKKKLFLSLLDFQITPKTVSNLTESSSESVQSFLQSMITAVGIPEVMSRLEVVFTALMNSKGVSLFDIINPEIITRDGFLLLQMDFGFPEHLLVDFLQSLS
Experimental: To test for CETP-inhibitory activity, the substances are administered orally using a stomach tube to transgenic hCETP mice of our own breeding (Dinchuk et al. BBA (1995) 1295-301). To this end, male mice are randomly assigned to groups having an equal number of animals, as a rule n=3, one day before the start of the experiment. Before administration of the substance, blood is taken from each mouse by puncture of the retroorbital venous plexus for the determination of its basal CETP activity in the serum (T1). The test substance is then administered to the animals using the stomach tube. At specific times after administration of the test substance, blood is taken from the animals by puncture a second time (T2), as a rule 1, or 3 and 6 h after substance administration, but if appropriate this can also be carried out at another time.
In order to be able to assess the inhibitory activity of a substance, for each time, i.e. 1 or 3 or 6 h, a corresponding control group is employed whose animals only receive the formulating agent without substance. In the control animals, the second blood sampling per animal is carried out as in the substance-treated animals in order to be able to determine the change in the CETP activity without inhibitor over the corresponding experimental time interval (1, 3 or 6 h).
After termination of the clotting, the blood samples are centrifuged and the serum is removed by pipette.
For the determination of the CETP activity, the cholesteryl ester transport over 4 h is determined. To this end, as a rule 2 μl of serum are employed in the test batch and the test is carried out as described under “CETP fluorescence test”.
The differences in the cholesteryl ester transport (pM CE*/h (T2)−pM CE*/h (T1)) are calculated for each animal and averaged in the groups. A substance which at one of the times reduces the cholesteryl ester transport by >30% is regarded as active.

[2] = target: T2, CETP (Homo sapiens, UniProt P11597); experiment: CETP-SPA test; type: biochemical; details: 3H-cholesterol ester transfer from HDL to biotin-LDL, 37° C., 18 h
T2 construct: CETP is obtained in partially purified form from human plasma; from tissue; host or cells: human plasma
T2 sequence (P11597 18-493): T1 sequence (P11597 18-493)
Experimental: CETP is obtained in partially purified form from human plasma by differential centrifugation and column chromatography and used for the test. To this end, human plasma is adjusted to a density of 1.21 g per ml using NaBr and centrifuged at 4° C. at 50000 rpm for 18 h. The bottom fraction (d>1.21 g/ml) is applied to a Sephadex® Phenyl-Sepharose 4B (Pharmacia) column, washed with 0.15 M NaCl/0.001 M tris HCl pH 7.4 and then eluted with dist. water. Die CETP-active fractions are pooled, dialysed against 50 mM Na acetate pH 4.5 and applied to a CM-Sepharose® (Pharmacia) column. The mixture is then eluted using a linear gradient (0-1 M NaCl). The pooled CETP fractions are dialysed against 10 mM TrisHCl pH 7.4 and then further purified by chromatography on a Mono Q® column (Pharmacia).
50 ml of fresh human EDTA plasma are adjusted to a density of 1.12 using NaBr and centrifuged at 4° C. in a Ty 65 rotor at 50000 rpm for 18 h. The upper phase is used for the obtainment of cold LDL. The lower phase is dialysed against 3×41 of PDB buffer (10 mM tris/HCl pH 7.4, […], 1 mM EDTA, 0.02% NaN3). Per 10 ml of retentate volume, 20 μl of 3H-cholesterol (Dupont NET-725; 1 μC/μl dissolved in ethanol!) is then added and the mixture is incubated at 37° C. under N2 for 72 h.
The batch is then adjusted to the density 1.21 using NaBr and centrifuged at 20° C. in a Ty 65 rotor at 50000 rpm for 18 h. The upper phase is recovered and the lipoprotein fractions are purified by gradient centrifugation. To this end, the isolated, labelled lipoprotein fraction is adjusted to a density of 1.26 using NaBr. 4 ml each of this solution are covered in centrifuged tubes (SW 40 rotor) with a layer of 4 ml of a solution of density 1.21 and 4.5 ml of a solution of 1.063 (density solutions of PDB buffer and NaBr) and then centrifuged for 24 h at 38000 rpm and 20° C. in the SW 40 rotor. The intermediate layer lying between the density 1.063 and 1.21, containing the labelled HDL, is dialysed against 3×100 volumes of PDB buffer at 4° C.
The retentate contains radiolabelled ^3H-CE-HDL, which, adjusted to about 5×10^6 cmp per ml, is used for the test.
For testing of the CETP activity, the transfer of ^3H-cholesterol ester from human HD lipoproteins to biotinylated LD lipoproteins is measured.
The reaction is ended by addition of streptavidin-SPA®beads (Amersham) and the transferred radioactivity is determined directly in a liquid scintillation counter.
In the test batch, 10 μl of HDL-^3H-cholesterol ester (˜50000 cpm) are incubated at 37° C. for 18 h with 10 μl of biotin-LDL (Amersham) in 50 mM Hepes/0.15 M NaCl/0.1% bovine serum albumin/0.05% NaN3 pH 7.4 containing 10 μl of CETP (1 mg/ml) and 3 μl of solution of the substance to be tested (dissolved in 10% DMSO/1% RSA). 200 μl of the SPA-streptavidin bead solution (TRKQ 7005) are then added, incubated further with shaking for 1 h and then measured in a scintillation counter.
Corresponding incubations with 10 μl of buffer, 10 μl of CETP at 4° C. and 10 μl of CETP at 37° C. serve as controls.
The activity transferred in the control batches with CETP at 37° C. is rated as 100% transfer. The substance concentration at which this transfer is reduced to half is specified as the IC50 value.

[3] = 1 h after administration, read-out: % inhibition at 30 mg/kg, 1 h
[4] = 3 h after administration, read-out: % inhibition at 30 mg/kg, 3 h
[5] = 6 h after administration, read-out: % inhibition at 30 mg/kg, 6 h

Row | inhibition at 30 mg/kg [1, 3] [%] | inhibition at 30 mg/kg [1, 4] [%] | inhibition at 30 mg/kg [1, 5] [%] | IC50 [2] [nM] | SMILES
1 | 71 | 49 | 35 | 40 | CC(C)c1nc2c(c(-c3cccs3)c1[C@@H](O)c1ccc(C(F)(F)F)cc1)[C@@H](O)CC1(CCC1)C2 [Example 61, (5S)-2-Isopropyl-4-(2-thienyl)-3-[(S)-hydroxy-(4-trifluoromethylphenyl)-methyl]-7-spirocyclobutyl-5,6,7,8-tetrahydroquinolin-5-ol]
2 | 69 | 51 | 44 | 30 | CC(C)c1nc2c(c(-c3ccccc3)c1[C@@H](O)c1ccc(C(F)(F)F)cc1)[C@@H](O)CC1(CCC1)C2 [Example 53, (5S)-2-Isopropyl-4-phenyl-3-[(S)-hydroxy-(4-trifluoromethylphenyl)-methyl]-7-spirocyclobutyl-5,6,7,8-tetrahydroquinolin-5-ol]
3 | 72 | 64 | 60 | 15 | CC(C)c1nc2c(c(-c3ccc(F)cc3)c1[C@@H](O)c1ccc(C(F)(F)F)cc1)[C@@H](O)CC1(CCC1)C2 [Example 51, (5S)-2-Isopropyl-4-(4-fluorophenyl)-3-[(S)-hydroxy-(4-trifluoromethylphenyl)-methyl]-7-spirocyclobutyl-5,6,7,8-tetrahydroquinolin-5-ol]
